From ChEMBL document CHEMBL3872249, “Computer design, synthesis, and bioactivity analyses of drugs like fingolimod used in the treatment of multiple sclerosis” (Bioorg Med Chem, 2017)

Columns and labels:
Type in all cases: functional
SK-N-SH [1] = assay: Effect on MAPK1 mRNA expression in human SK-N-SH cells at EC10 by qPCR method relative to beta-actin
SK-N-SH [2] = assay: Effect on C1S mRNA expression in human SK-N-SH cells at EC10 by qPCR method relative to beta-actin
SK-N-SH [3] = assay: Effect on IL18 mRNA expression in human SK-N-SH cells at EC10 by qPCR method relative to beta-actin
SH-SY5Y [4] = assay: Effect on GRM2 mRNA expression in human SH-SY5Y cells at EC10 by qPCR method relative to beta-actin
SK-N-SH [5] = assay: Effect on GRM2 mRNA expression in human SK-N-SH cells at EC10 by qPCR method relative to beta-actin
U-118-MG [6] = assay: Effect on CD4 mRNA expression in human U118MG cells at EC10 by qPCR method relative to beta-actin
SK-N-SH [7] = assay: Effect on IL13 mRNA expression in human SK-N-SH cells at EC10 by qPCR method relative to beta-actin
SH-SY5Y [8] = assay: Effect on MAPK1 mRNA expression in human SH-SY5Y cells at EC10 by qPCR method relative to beta-actin
SK-N-SH [9] = assay: Effect on EDN1 mRNA expression in human SK-N-SH cells at EC10 by qPCR method relative to beta-actin
U-118-MG [10] = assay: Effect on CSF1 mRNA expression in human U118MG cells at EC10 by qPCR method relative to beta-actin
SH-SY5Y [11] = assay: Effect on CXCL11 mRNA expression in human SH-SY5Y cells at EC10 by qPCR method relative to beta-actin
U-118-MG [12] = assay: Effect on IL13 mRNA expression in human U118MG cells at EC10 by qPCR method relative to beta-actin
SK-N-SH [13] = assay: Effect on IL2 mRNA expression in human SK-N-SH cells at EC10 by qPCR method relative to beta-actin
U-118-MG [14] = assay: Effect on EDN1 mRNA expression in human U118MG cells at EC10 by qPCR method relative to beta-actin
SH-SY5Y [15] = assay: Effect on C1S mRNA expression in human SH-SY5Y cells at EC10 by qPCR method relative to beta-actin
U-118-MG [16] = assay: Effect on CCL5 mRNA expression in human U118MG cells at EC10 by qPCR method relative to beta-actin
SK-N-SH [17] = assay: Effect on SOD1 mRNA expression in human SK-N-SH cells at EC10 by qPCR method relative to beta-actin
U-118-MG [18] = assay: Effect on S1PR3 mRNA expression in human U118MG cells at EC10 by qPCR method relative to beta-actin
SH-SY5Y [19] = assay: Effect on SOD1 mRNA expression in human SH-SY5Y cells at EC10 by qPCR method relative to beta-actin
SH-SY5Y [20] = assay: Effect on CXCL9 mRNA expression in human SH-SY5Y cells at EC10 by qPCR method relative to beta-actin
SK-N-SH [21] = assay: Effect on TGFB1 mRNA expression in human SK-N-SH cells at EC10 by qPCR method relative to beta-actin
U-118-MG [22] = assay: Effect on PLP1 mRNA expression in human U118MG cells at EC10 by qPCR method relative to beta-actin
U-118-MG [23] = assay: Effect on SOD1 mRNA expression in human U118MG cells at EC10 by qPCR method relative to beta-actin
SH-SY5Y [24] = assay: Effect on TNFRSF1B mRNA expression in human SH-SY5Y cells at EC10 by qPCR method relative to beta-actin
SH-SY5Y [25] = assay: Effect on CCL5 mRNA expression in human SH-SY5Y cells at EC10 by qPCR method relative to beta-actin
SK-N-SH [26] = assay: Effect on CCL5 mRNA expression in human SK-N-SH cells at EC10 by qPCR method relative to beta-actin
SH-SY5Y [27] = assay: Effect on MAL mRNA expression in human SH-SY5Y cells at EC10 by qPCR method relative to beta-actin
SH-SY5Y [28] = assay: Effect on GRM5 mRNA expression in human SH-SY5Y cells at EC10 by qPCR method relative to beta-actin
U-118-MG [29] = assay: Effect on RAF1 mRNA expression in human U118MG cells at EC10 by qPCR method relative to beta-actin
SK-N-SH [30] = assay: Effect on GRM7 mRNA expression in human SK-N-SH cells at EC10 by qPCR method relative to beta-actin
SH-SY5Y [31] = assay: Effect on ITGB2 mRNA expression in human SH-SY5Y cells at EC10 by qPCR method relative to beta-actin
SH-SY5Y [32] = assay: Effect on CSF1 mRNA expression in human SH-SY5Y cells at EC10 by qPCR method relative to beta-actin
SK-N-SH [33] = assay: Effect on GRM5 mRNA expression in human SK-N-SH cells at EC10 by qPCR method relative to beta-actin
SH-SY5Y [34] = assay: Effect on CYP19A1 mRNA expression in human SH-SY5Y cells at EC10 by qPCR method relative to beta-actin
SH-SY5Y [35] = assay: Effect on APP mRNA expression in human SH-SY5Y cells at EC10 by qPCR method relative to beta-actin
SK-N-SH [36] = assay: Effect on AGT mRNA expression in human SK-N-SH cells at EC10 by qPCR method relative to beta-actin
SH-SY5Y [37] = assay: Effect on GRM7 mRNA expression in human SH-SY5Y cells at EC10 by qPCR method relative to beta-actin
U-118-MG [38] = assay: Effect on ITGB2 mRNA expression in human U118MG cells at EC10 by qPCR method relative to beta-actin
U-118-MG [39] = assay: Effect on MAL mRNA expression in human U118MG cells at EC10 by qPCR method relative to beta-actin
U-118-MG [40] = assay: Effect on HLA-DRB1 mRNA expression in human U118MG cells at EC10 by qPCR method relative to beta-actin
SK-N-SH [41] = assay: Effect on HIF1 mRNA expression in human SK-N-SH cells at EC10 by qPCR method relative to beta-actin

## CCCCCCCCn1nnnc1CCC(N)(CO)CO.Cl
SK-N-SH [1]
  fold change (FC): -10.5515
SK-N-SH [2]
  fold change (FC): -5.1582
SK-N-SH [3]
  fold change (FC): -5.1137
SH-SY5Y [4]
  fold change (FC): -4.9647
SK-N-SH [5]
  fold change (FC): -5.1941
U-118-MG [6]
  fold change (FC): -3.5323
SK-N-SH [7]
  fold change (FC): -6.6894
SH-SY5Y [8]
  fold change (FC): -2.8875
SK-N-SH [9]
  fold change (FC): 7.7711
U-118-MG [10]
  fold change (FC): -4.2226
SH-SY5Y [11]
  fold change (FC): -5.0428
U-118-MG [12]
  fold change (FC): -5.9963
SK-N-SH [13]
  fold change (FC): -4.9224
U-118-MG [14]
  fold change (FC): 5.5464
SH-SY5Y [15]
  fold change (FC): -2.6686

## CCCCCCCCn1nnnc1-c1ccc(C(O)CC(N)(CO)CO)cc1.Cl (stereo unspecified)
U-118-MG [16]
  fold change (FC): -5.3124
SK-N-SH [17]
  fold change (FC): -3.3929
U-118-MG [18]
  fold change (FC): -4.6278
SH-SY5Y [19]
  fold change (FC): -3.4032
SH-SY5Y [20]
  fold change (FC): -3.0249
SK-N-SH [21]
  fold change (FC): -5.3267
U-118-MG [22]
  fold change (FC): 3.4958
U-118-MG [23]
  fold change (FC): 5.2803
SH-SY5Y [24]
  fold change (FC): -2.9117
SH-SY5Y [25]
  fold change (FC): -3.3855
SK-N-SH [26]
  fold change (FC): -4.1626

## CCCCCCCCc1ccc(CCC(N)(CO)CO)cc1 [FINGOLIMOD]
SH-SY5Y [27]
  fold change (FC): -5.5117
SH-SY5Y [28]
  fold change (FC): -3.3753
U-118-MG [29]
  fold change (FC): -3.8172
SK-N-SH [30]
  fold change (FC): -6.2306
SH-SY5Y [31]
  fold change (FC): -3.9655
SH-SY5Y [32]
  fold change (FC): -3.1329
SK-N-SH [33]
  fold change (FC): -5.4523
SH-SY5Y [34]
  fold change (FC): -5.8869
SH-SY5Y [35]
  fold change (FC): -10.004
SK-N-SH [36]
  fold change (FC): 5.63
SH-SY5Y [37]
  fold change (FC): -5.361
U-118-MG [38]
  fold change (FC): -4.0523
U-118-MG [39]
  fold change (FC): -3.8671
U-118-MG [40]
  fold change (FC): -3.4313
SK-N-SH [41]
  fold change (FC): -3.1808
